Test results reported in PubChem BioAssay (NCI).
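These data come from cells grown in 96-well plates and exposed to compound for 48 hours at five concentrations. Definition used: TGI = concentration required for complete inhibition of growth.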

What was measured:
Assay in all cases: NCI anticancer screen, dose series, 48 h
HCT-15 colon = system: HCT-15 colon
EKVX NSCLC = system: EKVX NSCLC
SF-295 CNS = system: SF-295 CNS
HCT-116 colon = system: HCT-116 colon
IGROV1 ovarian = system: IGROV1 ovarian
MCF7 breast = system: MCF7 breast
HOP-62 NSCLC = system: HOP-62 NSCLC
A549 NSCLC = system: A549 NSCLC
NCI/ADR-RES ovarian = system: NCI/ADR-RES ovarian
HOP-92 NSCLC = system: HOP-92 NSCLC
MDA-N = system: MDA-N
KM12 colon = system: KM12 colon
OVCAR-3 ovarian = system: OVCAR-3 ovarian
SNB-75 CNS = system: SNB-75 CNS
A498 renal = system: A498 renal
T-47D breast = system: T-47D breast
SK-MEL-5 melanoma = system: SK-MEL-5 melanoma
BT-549 breast = system: BT-549 breast
HCC-2998 colon = system: HCC-2998 colon
HT29 colon = system: HT29 colon
CCRF-CEM leukemia = system: CCRF-CEM leukemia
MOLT-4 leukemia = system: MOLT-4 leukemia
HL-60(TB) leukemia = system: HL-60(TB) leukemia
CAKI-1 renal = system: CAKI-1 renal
NCI-H522 lung = system: NCI-H522 lung
HS 578T breast = system: HS 578T breast
TK-10 renal = system: TK-10 renal
ACHN renal = system: ACHN renal
COLO 205 colon = system: COLO 205 colon
PC-3 prostate = system: PC-3 prostate
NCI-H23 lung = system: NCI-H23 lung
RPMI-8226 leukemia = system: RPMI-8226 leukemia
SNB-19 CNS = system: SNB-19 CNS
RXF 393 renal = system: RXF 393 renal
SK-MEL-28 melanoma = system: SK-MEL-28 melanoma
SK-MEL-2 melanoma = system: SK-MEL-2 melanoma
M14 melanoma = system: M14 melanoma
SN12C renal = system: SN12C renal
NCI-H460 lung = system: NCI-H460 lung
NCI-H226 lung = system: NCI-H226 lung
SW-620 colon = system: SW-620 colon
UACC-62 melanoma = system: UACC-62 melanoma
OVCAR-4 ovarian = system: OVCAR-4 ovarian
MDA-MB-435 = system: MDA-MB-435
786-0 renal = system: 786-0 renal
UACC-257 melanoma = system: UACC-257 melanoma
OVCAR-5 ovarian = system: OVCAR-5 ovarian
LOX IMVI melanoma = system: LOX IMVI melanoma
OVCAR-8 ovarian = system: OVCAR-8 ovarian
SK-OV-3 ovarian = system: SK-OV-3 ovarian
SF-268 CNS = system: SF-268 CNS
MDA-MB-231 breast = system: MDA-MB-231 breast
UO-31 renal = system: UO-31 renal
SR leukemia = system: SR leukemia
U251 CNS = system: U251 CNS
K-562 leukemia = system: K-562 leukemia
DU-145 prostate = system: DU-145 prostate
MALME-3M melanoma = system: MALME-3M melanoma
SF-539 CNS = system: SF-539 CNS

Measured: TGI

CC1(C)OC(=O)N(c2ccccc2)C12C=Cc1cccc([N+](=O)[O-])c1O2 (configuration not stated)
76.2 µM: SK-OV-3 ovarian
50.2 µM: SR leukemia
94.9 µM: T-47D breast
> 100 µM: HCT-15 colon | EKVX NSCLC | SF-295 CNS | HCT-116 colon | IGROV1 ovarian | MCF7 breast | HOP-62 NSCLC | A549 NSCLC | NCI/ADR-RES ovarian | HOP-92 NSCLC | MDA-N | KM12 colon | OVCAR-3 ovarian | SNB-75 CNS | A498 renal | SK-MEL-5 melanoma | BT-549 breast | HCC-2998 colon | HT29 colon | CCRF-CEM leukemia | CAKI-1 renal | NCI-H522 lung | HS 578T breast | TK-10 renal | ACHN renal | COLO 205 colon | PC-3 prostate | NCI-H23 lung | RPMI-8226 leukemia | SNB-19 CNS | RXF 393 renal | SK-MEL-28 melanoma | SK-MEL-2 melanoma | M14 melanoma | SN12C renal | NCI-H460 lung | NCI-H226 lung | SW-620 colon | UACC-62 melanoma | OVCAR-4 ovarian | MDA-MB-435 | 786-0 renal | UACC-257 melanoma | OVCAR-5 ovarian | LOX IMVI melanoma | OVCAR-8 ovarian | SF-268 CNS | MDA-MB-231 breast | UO-31 renal | U251 CNS | K-562 leukemia | DU-145 prostate
58.7 µM: HL-60(TB) leukemia
74.1 µM: MOLT-4 leukemia

Nc1nc2c(ncn2C2C=CC(CO)C2)c(=O)[nH]1 (configuration not stated)
> 100 µM: HCT-15 colon | EKVX NSCLC | SF-295 CNS | HCT-116 colon | IGROV1 ovarian | MCF7 breast | HOP-62 NSCLC | A549 NSCLC | NCI/ADR-RES ovarian | HOP-92 NSCLC | MDA-N | KM12 colon | OVCAR-3 ovarian | SNB-75 CNS | A498 renal | T-47D breast | SK-MEL-5 melanoma | BT-549 breast | HCC-2998 colon | HT29 colon | CAKI-1 renal | NCI-H522 lung | HS 578T breast | TK-10 renal | ACHN renal | COLO 205 colon | PC-3 prostate | NCI-H23 lung | RPMI-8226 leukemia | SNB-19 CNS | RXF 393 renal | SK-MEL-28 melanoma | SK-MEL-2 melanoma | M14 melanoma | SN12C renal | NCI-H460 lung | NCI-H226 lung | SW-620 colon | UACC-62 melanoma | OVCAR-4 ovarian | MDA-MB-435 | 786-0 renal | UACC-257 melanoma | OVCAR-5 ovarian | OVCAR-8 ovarian | SK-OV-3 ovarian | SF-268 CNS | MDA-MB-231 breast | UO-31 renal | SR leukemia | MALME-3M melanoma | U251 CNS | K-562 leukemia | DU-145 prostate | SF-539 CNS

CCOC(=O)C1(C(=O)OCC)OC(C)=NC1(C(=O)OC)C(=O)OC
> 31.6 µM: BT-549 breast
> 24.6 µM: RPMI-8226 leukemia
> 100 µM: HCT-15 colon | EKVX NSCLC | SF-295 CNS | HCT-116 colon | IGROV1 ovarian | MCF7 breast | HOP-62 NSCLC | A549 NSCLC | NCI/ADR-RES ovarian | MDA-N | KM12 colon | OVCAR-3 ovarian | A498 renal | T-47D breast | SK-MEL-5 melanoma | HCC-2998 colon | HT29 colon | CCRF-CEM leukemia | MOLT-4 leukemia | HL-60(TB) leukemia | CAKI-1 renal | HS 578T breast | TK-10 renal | ACHN renal | COLO 205 colon | PC-3 prostate | NCI-H23 lung | SNB-19 CNS | RXF 393 renal | SK-MEL-28 melanoma | SK-MEL-2 melanoma | M14 melanoma | SN12C renal | NCI-H460 lung | NCI-H226 lung | SW-620 colon | UACC-62 melanoma | OVCAR-4 ovarian | MDA-MB-435 | 786-0 renal | UACC-257 melanoma | OVCAR-5 ovarian | LOX IMVI melanoma | OVCAR-8 ovarian | SK-OV-3 ovarian | SF-268 CNS | MDA-MB-231 breast | UO-31 renal | SR leukemia | MALME-3M melanoma | U251 CNS | K-562 leukemia | DU-145 prostate | SF-539 CNS
98.1 µM: SNB-75 CNS
> 26.4 µM: HOP-92 NSCLC

Cc1cccc2c1c(=O)c1c(O)c3c(cc1n2C)OC(C)(C)C=C3
> 10 µM: HCT-15 colon | EKVX NSCLC | SF-295 CNS | HCT-116 colon | IGROV1 ovarian | MCF7 breast | HOP-62 NSCLC | A549 NSCLC | NCI/ADR-RES ovarian | MDA-N | KM12 colon | OVCAR-3 ovarian | SNB-75 CNS | A498 renal | T-47D breast | SK-MEL-5 melanoma | BT-549 breast | HCC-2998 colon | HT29 colon | CCRF-CEM leukemia | MOLT-4 leukemia | HL-60(TB) leukemia | CAKI-1 renal | NCI-H522 lung | HS 578T breast | TK-10 renal | ACHN renal | COLO 205 colon | PC-3 prostate | NCI-H23 lung | RPMI-8226 leukemia | SNB-19 CNS | RXF 393 renal | SK-MEL-28 melanoma | SK-MEL-2 melanoma | M14 melanoma | SN12C renal | NCI-H460 lung | NCI-H226 lung | SW-620 colon | UACC-62 melanoma | OVCAR-4 ovarian | MDA-MB-435 | 786-0 renal | UACC-257 melanoma | OVCAR-5 ovarian | LOX IMVI melanoma | OVCAR-8 ovarian | SK-OV-3 ovarian | SF-268 CNS | MDA-MB-231 breast | SR leukemia | MALME-3M melanoma | U251 CNS | K-562 leukemia | DU-145 prostate | SF-539 CNS
